Results: PubChem BioAssay (NCI)
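Five concentrations, 48 hours, 96-well plates. GI50: concentration for 50% inhibition of growth. TGI marks complete inhibition of growth.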

Key:
Experiment in all cases: NCI tumour cell line growth inhibition, 48 h
DMS 273 small cell lung = tested on: DMS 273 small cell lung
HCT-116 colon = tested on: HCT-116 colon
KM20L2 colon = tested on: KM20L2 colon
RXF 393 renal = tested on: RXF 393 renal
SN12C renal = tested on: SN12C renal
SNB-19 CNS = tested on: SNB-19 CNS
SK-OV-3 ovarian = tested on: SK-OV-3 ovarian
BT-549 breast = tested on: BT-549 breast
MCF7 breast = tested on: MCF7 breast
T-47D breast = tested on: T-47D breast

Compound | TGI (DMS 273 small cell lung) [µM] | TGI (HCT-116 colon) [µM] | TGI (KM20L2 colon) [µM] | TGI (RXF 393 renal) [µM] | TGI (SN12C renal) [µM] | TGI (SNB-19 CNS) [µM] | TGI (SK-OV-3 ovarian) [µM] | GI50 (DMS 273 small cell lung) [µM] | GI50 (HCT-116 colon) [µM] | GI50 (KM20L2 colon) [µM] | GI50 (SK-OV-3 ovarian) [µM] | GI50 (SN12C renal) [µM] | GI50 (SNB-19 CNS) [µM] | GI50 (RXF 393 renal) [µM] | GI50 (BT-549 breast) [µM] | TGI (BT-549 breast) [µM] | GI50 (MCF7 breast) [µM] | TGI (MCF7 breast) [µM] | GI50 (T-47D breast) [µM] | TGI (T-47D breast) [µM]
Cc1ccc(S(=O)(=O)c2ccc(NC(=O)SCCC(=O)O)cc2)cc1 | > 100 | > 100 | > 100 | > 100 | > 100 | > 100 | – | – | – | – | – | – | – | – | – | – | – | – | – | –
C=C=C(C(=O)OC)S(=O)c1ccccc1[N+](=O)[O-] (stereo not drawn) | > 100 | > 100 | > 100 | > 100 | > 100 | > 100 | > 100 | – | – | – | – | – | – | – | – | – | – | – | – | –
COc1ccc(OC(C)=O)c2c1CCC=CC2=O | 33.8 | 34.3 | – | 21.6 | 31 | 31.4 | 31.2 | – | – | – | – | – | – | – | – | – | – | – | – | –
CCN(CC)CC(C)(C)C(=O)/C=C/c1cccc(/C=C/C(=O)C(C)(C)CN(CC)CC)c1 | 1.73 | 1.24 | 2.29 | 1.49 | 1.04 | 3.89 | 2.79 | – | – | – | – | – | – | – | – | – | – | – | – | –
C#CCNC(=O)N(CC#C)N=O | > 100 | > 100 | > 100 | > 100 | > 100 | > 100 | > 100 | – | – | – | – | – | – | – | – | – | – | – | – | –
Nc1c(-c2cn(Cc3ccccc3)c3ccccc23)[n+]([O-])c2ccccc2[n+]1[O-] | 81.8 | – | > 100 | – | > 100 | > 100 | 95.3 | – | – | – | – | – | – | – | – | – | – | – | – | –
COC(=O)C1=Cc2cc(OC)c(OC)c(OC)c2[C@H](c2cc(OC)c(OC)c(OC)c2)C1C(=O)OC (stereo partly drawn) | > 100 | > 100 | > 100 | > 100 | > 100 | > 100 | > 100 | – | – | – | – | – | – | – | – | – | – | – | – | –
O=C1/C(=N\O)c2ccccc2S1(=O)=O | > 100 | > 100 | > 100 | > 100 | > 100 | > 100 | > 100 | – | – | – | – | – | – | – | – | – | – | – | – | –
CC1=C(O)c2cn(C)cc2C(=O)C1=O | > 100 | > 100 | > 100 | > 100 | > 100 | > 100 | > 100 | – | – | – | – | – | – | – | – | – | – | – | – | –
COc1ccccc1NC(=O)C1=C(C)NC(C)=C(C(=O)Nc2ccccc2OC)C1C1=CC=COC1 | 29.1 | 17.2 | – | – | > 100 | 84.2 | 71.2 | – | – | – | – | – | – | – | – | – | – | – | – | –
Cc1cc([N+](=O)[O-])ccc1NC(=O)C(=O)C(C(=O)c1ccccc1-c1ccccc1)C1OC(=O)c2ccccc21 (stereo not drawn) | 25.5 | 29.9 | 15.5 | 19.5 | 37.4 | 12.3 | 65.6 | – | – | – | – | – | – | – | – | – | – | – | – | –
c1ccc([CH2][Sn]([CH2]c2ccccc2)([O]c2cccc3cccnc23)[O]c2cccc3cccnc23)cc1 | 0.502 | 1.19 | 2.07 | – | 2.1 | 2.49 | 1.57 | 0.233 | 0.211 | 0.793 | 0.492 | 0.603 | 1.15 | – | – | – | – | – | – | –
CN(C)c1ccc(/C=C/C(=O)[O-])cc1.CN(C)c1ccc(/C=C/C(=O)[O-])cc1.[Cu+2] | > 100 | > 100 | > 100 | > 100 | > 100 | > 100 | > 95 | 54 | – | – | – | – | – | > 100 | – | – | – | – | – | –
COC1OC(CO)C(O)C(OC(C)=O)C1NC(=O)N(CCCl)N=O (stereo not drawn) | > 100 | > 100 | > 100 | > 100 | > 100 | > 100 | > 100 | – | – | – | – | – | – | – | – | – | – | – | – | –
C=C(C)[C@@H]1CC[C@]2(COCCC#N)CC[C@]3(C)[C@H](CC[C@@H]4[C@@](C)(CCCNCCC#N)[C@H](C(=C)C)CC[C@]43C)[C@@H]12 | – | 13.8 | – | 14.5 | 29.2 | > 50 | > 50 | – | 7.25 | – | > 50 | 10 | 26.4 | 7.44 | 24.3 | > 50 | 9.9 | 48.5 | 8.71 | > 50
O=C1CC(c2c(-c3ccccc3)[nH]c3ccccc23)C(=O)N1 (stereo not drawn) | > 100 | > 100 | > 100 | > 100 | – | – | > 100 | – | – | – | – | – | – | – | – | – | – | – | – | –
Cc1ccc(NC(=O)c2ccc(CN3CCN(C)CC3)cc2)cc1Nc1nccc(-c2cccnc2)n1 | – | 42.6 | – | 33.3 | > 100 | > 100 | 80.9 | – | 13.2 | – | 28.7 | 30.7 | 36.1 | 14.2 | 16.6 | 34.9 | 17.8 | 44.8 | 16.9 | 49.6
CO/C=C/C(=O)c1cc2cnc3c(=N)cc(NC(=O)C(C)C)c([nH]1)c23 | – | 0.282 | – | 0.246 | 1.61 | 1.08 | 0.873 | – | 0.0585 | – | 0.146 | 0.0246 | 0.148 | 0.0301 | 0.0236 | 0.258 | 0.0182 | 1.25 | 0.00998 | 0.0439
Cn1cc(C2=C(c3ccccc3[N+](=O)[O-])C(=O)NC2=O)c2ccccc21 | – | > 25 | – | 7.19 | > 25 | > 25 | > 25 | – | 1.38 | – | 4.79 | 4.98 | 6.88 | 1.61 | 5.26 | > 20.2 | 4.05 | > 25 | 7.52 | 23.5
C[C@]12CCc3nc(Nc4cccc(O)c4)sc3C1=CC[C@@H]1[C@@H]2CC[C@]2(C)/C(=N\NC(N)=S)CC[C@@H]12 | – | 2.69 | – | 2.19 | 5.31 | 12.8 | 22 | – | 1.34 | – | 3.21 | 1.98 | 1.88 | 0.574 | 1.15 | 3.97 | 1.52 | 3.13 | 1.83 | 4.41
Nc1cc(F)ccc1CC(=O)O | – | > 100 | – | > 100 | > 100 | > 100 | > 100 | – | – | – | – | – | – | – | – | > 100 | – | > 100 | – | > 100
CSc1ccc(-c2ccccc(=O)c2O)cc1 | – | 37.4 | – | 16.2 | 30.3 | > 100 | > 100 | – | 0.506 | – | 0.551 | 0.878 | 0.57 | 0.976 | 0.873 | 35.2 | 0.322 | > 100 | 0.985 | > 100
